One data set deals with P. falciparum Dd2 (CQR). Put plainly: Inhibition of P. falciparum growth. The settings on record: Plasmodium falciparum, DD2, 72 h, read-out: IC50 (nM) for P. falciparum Dd2. It counts as cell-based.
The subject of data set [1] is CQS D6-infected RBCs (P. falciparum). Briefly: Accumulation experiment in parasitized red blood cells, D6. Format: cell-based. As to conditions: for Uptake: by 6 × 10^7 PRBCs after 1 hour of incubation, initial medium ∼ 5 µM, ±5%.
Data set [2] relates to CQR Dd2-infected RBCs (P. falciparum). Briefly: Accumulation experiment in parasitized red blood cells, Dd2. Format: cell-based. As to conditions: for Uptake: by 6 × 10^7 PRBCs after 1 hour of incubation, initial medium ∼ 5 µM, ±5%.
The test system of the next data set is P. falciparum D6 (CQS). Briefly: Inhibition of P. falciparum growth. The settings on record: Plasmodium falciparum, D6, 72 h, read-out: IC50 (nM) for P. falciparum D6. Format: cell-based.
The nature of data set [3]: General cytotoxicity, mitogen-stimulated murine spleenic lymphocytes. It counts as cell-based. The settings on record: mouse, mitogen-stimulated murine splenic lymphocytes.
In a further data set the test system is P. berghei. Put plainly: Mouse efficacy against P. berghei. As to conditions: for Mouse survival (days): 1 × 30 mg/kg.
Another data set deals with β-hematin. Briefly: β-hematin inhibition. As to conditions: for pIC50: read-out: β-hematin inhibition, 40 µM heme, acetate pH 4.8, Tween20, 24 hours at 37°C. It counts as biochemical.
Data set [4] deals with hemozoin production in Dd2 P. falciparum. Briefly: Hemozoin inhibition in cell culture. Format: cell-based.
Data set [5] relates to hemozoin production in D6 P. falciparum. Briefly: Hemozoin inhibition in cell culture. Format: cell-based. The settings on record: 24 hours.
Data set [6] in a line: Signs of toxicity when administered to mice. Format: in vivo. The settings on record: administered to mice in the P. berghei experiments.
Data set [7] is described as follows: Heme-drug binding by optical titration. The settings on record: apparent; 2:1 heme to drug stoichiometry; 5 µM heme, phosphate buffer pH 5.7.
Setting [8] is: [concentration in DV / concentration in medium].

The IC50 is the concentration at which inhibition is half-maximal.

pIC50: −log10 of the molar value. Values joined by “and” are separate entries in the source; they are usually repeats but may differ in a detail not shown here. Equal values may be shown once.

Regarding `CCN(CC)CCCC(C)Nc1ccnc2cc(Cl)ccc12` (stereo not shown) [CQ, chloroquine, reference compound], the 50% inhibitory concentration (IC50) in the data set with P. falciparum Dd2 (CQR) was determined as 102 nM; with P. falciparum D6 (CQS), 6.9 nM. Besides, the entries for the “Uptake” value in [1] and in data set [2] were 7e-09 mol and 5e-09 mol, respectively.
Regarding `CN(CCCNc1ccnc2cc(Cl)ccc12)CCCN1c2ccccc2CCc2ccccc21` [Compound 1], the values for the pIC50 (in data set [3]; in the data set with β-hematin) were 6.15 and 5.05, respectively. Further, the Accumulation ratio is recorded as 32,000 in data set [1] (setting [8]) and 38,000 in data set [2] (setting [8]). In addition, the “Uptake” value in [1] came out at 1.6e-08 mol; in data set [2] it was 1.8e-08 mol. In data set [1] (initial medium concentration ∼ 5 µM), the “increase of DV concentration over initial medium concentration” value is given as 13,000 fold. Further, the “Mouse survival (days)” value with P. berghei (oral) is reported as “Mice euthanized day 3”. Moreover, the “hemozoin formation by microscopy” value is recorded as “also the case” in data set [4] (100 nM drug, 24 hours (not shown)) and “some hemozoin present” in [5] (100 nM drug).
Consider `Clc1ccc2c(NCCN3CCN(C(c4ccccc4)c4ccccc4)CC3)ccnc2c1` [Compound 4, N-(2-(4-Benzhydrylpiperazin-1-yl)ethyl)-7-chloroquinolin-4-amine], for which the figures for the pIC50 (in [3]; in the data set with β-hematin) were 5.72 and 5.60, respectively. Moreover, the “Mouse survival (days)” value in the data set with P. berghei (subcutaneous) was “Mice euthanized day 3”. Also, the “increase in survival days compared to control animals” value in the data set with P. berghei (4 × 30 mg/kg, oral) was roughly 10 days.
Consider `Clc1ccc2c(NCCCN3CCN(C(c4ccccc4)c4ccccc4)CC3)ccnc2c1` [Compound 5, N-(3-(4-Benzhydrylpiperazin-1-yl)propyl)-7-chloroquinolin-4-amine], for which the values for the pIC50 (in data set [3]; in the data set with β-hematin) were 5.96 and 5.46, respectively.
As to `Clc1ccc2c(NCCCN3CCCN(C(c4ccccc4)c4ccccc4)CC3)ccnc2c1` [Compound 6, N-(3-(4-Benzhydryl-1,4-diazepan-1-yl)propyl)-7-chloroquinolin-4-amine], the pIC50 in data set [3] is 6.15.
As for `Clc1ccc(C(c2ccccc2)N2CCN(CCNc3ccnc4cc(Cl)ccc34)CC2)cc1` (stereo not shown) [Compound 7, 7-Chloro-N-(2-(4-((4-chlorophenyl)(phenyl)methyl)piperazin-1-yl)ethyl)quinolin-4-amine], the pIC50 in data set [3] was 5.85.
In data set [3], `Clc1ccc(C(c2ccccc2)N2CCN(CCCNc3ccnc4cc(Cl)ccc34)CC2)cc1` (stereo not shown) [Compound 8, 7-Chloro-N-(3-(4-((4-chlorophenyl)(phenyl)methyl)piperazin-1-yl)propyl)quinolin-4-amine] gave a pIC50 of 6.10.
In the case of `Clc1ccc(C(c2ccccc2)N2CCCN(CCCNc3ccnc4cc(Cl)ccc34)CC2)cc1` (stereo not shown) [Compound 9, 7-Chloro-N-(3-(4-((4-chlorophenyl)(phenyl)methyl)-1,4-diazepan-1-yl)propyl)quinolin-4-amine], in data set [3], the pIC50 was 6.05.
As for `Fc1ccc(C(c2ccc(F)cc2)N2CCN(CCCNc3ccnc4cc(Cl)ccc34)CC2)cc1` [Compound 10, N-(3-(4-(Bis(4-fluorophenyl)methyl)piperazin-1-yl)propyl)-7-chloroquinolin-4-amine], in data set [3], the pIC50 is 5.39.
`Clc1ccc2c(NCCN3CCCN(C4c5ccccc5-c5ccccc54)CC3)ccnc2c1` [Compound 11, N-(2-(4-(9H-Fluoren-9-yl)-1,4-diazepan-1-yl)ethyl)-7-chloroquinolin-4-amine]: in data set [3], the pIC50 was 5.60.
`Clc1ccc2c(NCCCN3CCCN(C4c5ccccc5-c5ccccc54)CC3)ccnc2c1` [Compound 12, N-(3-(4-(9H-Fluoren-9-yl)-1,4-diazepan-1-yl)propyl)-7-chloroquinolin-4-amine] gave a pIC50 in data set [3] of 5.60.
Consider `CN(CCCN1c2ccccc2CCc2ccccc21)CCNc1ccnc2cc(Cl)ccc12` [Compound 13, N^1-(7-chloroquinolin-4-yl)-N^2-(3-(10,11-dihydro-5H-dibenzo[b,f]azepin-5-yl)propyl)-N^2-methylethane-1,2-diamine], for which the pIC50 was 5.85 in data set [3] and 5.00 in the data set with β-hematin.
On to `Clc1ccc2c(NCCCN3CCN(C(c4ccccc4)(c4ccccc4)c4ccccc4)CC3)ccnc2c1` [Compound 15, 7-Chloro-N-(3-(4-tritylpiperazin-1-yl)propyl)quinolin-4-amine], for which the “Mouse survival (days)” value in the data set with P. berghei (subcutaneous) is “Mice euthanized day 3”. Moreover, the mice cured in the data set on P. berghei (4 × 30 mg/kg, oral, parasite-free on day 30 post-infection) is listed as 1/3. Moreover, the “β-hematin inhibition (µM)” value in the data set on β-hematin (IC50, 40 µM heme, acetate pH 4.8, Tween20, 24 hours at 37°C) is listed as “insoluble”.
Consider `Clc1ccc2c(NCCCN3CCN(C4C5CC6CC(C5)CC4C6)CC3)ccnc2c1` (stereo not shown) [Compound 17, N-(3-(4-(Adamant-2-yl)piperazin-1-yl)propyl)-7-chloroquinolin-4-amine], for which, in the data set with β-hematin, the pIC50 was 4.85.
On to `Clc1ccc2c(NCCN3CCC(NC(c4ccccn4)c4ccccn4)CC3)ccnc2c1` [Compound 21, 7-Chloro-N-(2-(4-(dipyridin-2-ylmethylamino)piperidin-1-yl)ethyl)quinolin-4-amine], for which the mice cured in the data set on P. berghei (second trial, 4 × 44 mg/kg, oral (equimolar to 30 mg/kg CQ)) is 3 out of 3 and 3/3. Besides, the pIC50 with β-hematin was ~5.70 and 5.70.
With `Clc1ccc2c(NCCCN3CCC(NC(c4ccccn4)c4ccccn4)CC3)ccnc2c1` [Compound 22, 7-Chloro-N-(3-(4-(dipyridin-2-ylmethylamino)piperidin-1-yl)propyl)quinolin-4-amine], the “signs of toxicity in mice” value in data set [6] was “no obvious signs of toxicity”. Moreover, the IC50 with P. falciparum Dd2 (CQR) stood at 1.6 nM. For the same compound, the mice cured entry was “two of the three and 2/3” with P. berghei (4 × 30 mg/kg, oral, parasite-free on day 30 post-infection, 30 mg/kg); 9 out of 10 and 9/10 in the data set on P. berghei (second trial, 4 × 46 mg/kg, oral (equimolar to 30 mg/kg CQ)). In addition, the pIC50 in the data set on β-hematin is 5.80. Besides, the “hemozoin formation by microscopy” value is “appeared to preclude hemozoin formation” in data set [4] (10 nM drug, 24 hours) and “appeared to preclude hemozoin formation” in [5] (10 nM drug).
As to `OCCN1CCN(C(c2ccccc2)c2ccccc2)CC1` [Compound 26, 2-(4-Benzhydrylpiperazin-1-yl)ethanol], the “Kd [µM (app)]” value in data set [7] is given as “no activity”.
